Measurements reported in PMC11801377, “A uniquely efficacious type of CFTR corrector with complementary mode of action” (Science Advances, 2024).

How the values were obtained:
CFTR mRNA = CFTR mRNA quantification in CFBE cells; format: cell-based, human; details: 24 hours, 2000 nM
Procedure: CFBE-F508del-CFTR cells were seeded at 70,000 cells per well in a FNC-coated 48-well plate and incubated for 24 hours with 2000 nM of indicated correctors or DMSO vehicle diluted in growth medium deprived of FBS but supplemented with 1% HSA. CFBE-WT-CFTR cells were treated with DMSO vehicle accordingly. Then, cells were washed twice with PBS^+ and lysed in RLT buffer (QIAGEN) for 10 min on ice. Lysates were fully homogenized with QIAshredder (#79656, QIAGEN), and total RNA was extracted with an RNeasy Mini kit (#74106, QIAGEN) following the manufacturer’s instruction. At the end, a deoxyribonuclease treatment was performed with a DNA-free kit (Invitrogen, AM1906) following the manufacturer’s instruction. A reverse transcription (150 ng of total RNA per sample) with random hexamers was performed with the high-capacity cDNA Reverse Transcription Kit (#4368814, Thermo Fisher Scientific) for 2 hours at 37°C. Three microliters of cDNA was mixed with 10 μl of TaqMan Fast Universal PCR (polymerase chain reaction) Master Mix (2×) No AmpErase UNG (4367848, Life Technologies) containing the probe of interest (1:20), and a quantitative PCR was run [20″ at 95°C; 3″ at 95°C to 30″ at 60°C (40 cycles)] on a 7500 Applied Biosystems device. […] Reference gene-normalized CFTR mRNA expression was calculated using ΔΔCt method with CFTR expression in vehicle-treated CFBE-F508del cells set to 1.

[1] = test system: 10 most frequent CF-causing CFTR folding mutations; assay: CFTR correction (immunoblotting) in HEK-TREx cells expressing CF-causing CFTR folding mutations; format: cell-based, human; details: many mutants
Excerpt: The human CFTR expressing HEK cell pools with the mutations described below were generated by integrase-mediated homologous recombination of the CFTR sequence into the T-REx HEK293 background (Thermo Fisher Scientific). This expression system allows the tetracycline-inducible expression of genes of interest from one defined insertion site. Parental T-REx-HEK293 cells were cultivated in growth medium: Dulbecco’s modified Eagle’s medium + GlutaMAX-I (#31966, Life Technologies), 10% dialyzed FBS (Gibco, #26400), penicillin (100 U/ml), streptomycin (100 μg/ml), hygromycin B (0.1 mg/ml; Life Technologies), blasticidin (5 μg/ml; Invitrogen, #R210-01), and 0.1 mM nonessential amino acid solution (Invitrogen, #11140-035). Recombinant T-REx-HEK-CFTR cells were generated by lipofectamine transfection (Life Technologies) of plasmids containing mutated versions of CFTR (RefSeq NM_000492) and then cultivated in selection medium [growth medium containing Geneticin (1 mg/ml) (Invitrogen, #10131-027) instead of hygromycin]. The plasmid constructs were synthetized by GENEART (Thermo Fisher Scientific) and designed with the WT CFTR intron 5 to 6 (880 nucleotides) to prevent leaky expression issues during the cloning process in bacteria. […]

`Cc1nn(C)cc1S(=O)(=O)NC(=O)c1ccc(-n2ccc(OCC(C)(C)C(F)(F)F)n2)nc1N1C[C@@H](C)CC1(C)C` [ELX, elexacaftor] was tested, and the “effect on CFTR mRNA levels” value (CFTR mRNA) was “neither macrocycles nor ELX/TEZ affected these levels” and the “correction by stand-alone treatment” value [1] was “no/little correction”.

For `CC(C)(CO)c1cc2cc(NC(=O)C3(c4ccc5c(c4)OC(F)(F)O5)CC3)c(F)cc2n1C[C@@H](O)CO` [TEZ, tezacaftor], the “effect on CFTR mRNA levels” value (CFTR mRNA) was “neither macrocycles nor ELX/TEZ affected these levels” and the “correction by stand-alone treatment” value [1] was “no/little correction”.
